Test results as given in PMC12080252, “Daphnia magna as an Alternative Model for (Simultaneous) Bioaccumulation and Chronic Toxicity Assessment—Controlled Exposure Study Indicates High Hazard of Heterocyclic PAHs” (Environmental Science & Technology, 2025).
Several values for one entry are separate records, joined by “and”; a condition that tells them apart may be missing. Equal entries are not always repeated. Where two headings read alike, the source gives them in different places.

Legend:
[1] = Partitioning between methanolic loading solution and aqueous medium (passive dosing); format: physicochemical; details: methanolic loading solution vs M4 medium at equilibrium via PDMS disk
Experimental: Polydimethylsiloxane (PDMS) passive dosing disks, each weighing 2 g with a surface area of 19.6 cm^2, were prepared using SYLGARD 184 silicone elastomer kit and cleaned before use. Details of the procedure are given in Section S3 (SI file). PDMS disks were loaded in methanolic solution or suspension of the test compounds (10 mL solution/disk) with constant shaking for 72 h, wiped with a lint-free tissue, and washed with water for 30 min four times to remove methanol.
The time required to reach equilibrium between the PDMS disk and the aqueous medium was determined by conducting 72-h kinetic experiments. Chemicals were dosed into M4 medium in 250 mL Schott bottles (in triplicates) at a ratio of 1 disk/100 mL M4 medium using disks loaded with methanolic solution of a single test substance. For the controls, the disks were loaded with pure methanol. While shaking the bottles at room temperature, five samples were taken at different time points over 72 h and the equilibration time was determined.
Passive dosing enabled successful quantification of exposure concentrations after centrifugation of algal biomass (CW), closely matching freely dissolved concentrations (Cfree) calculated from partition coefficients between methanol and the medium (KMeOH:medium; see Figure S12 and section S6 for details).
Table S5 Partition coefficients between the methanolic loading solutions (CMeOH, t=0, nominal concentration
in methanol at t=0) and the measured equilibrium concentrations of the aqueous medium (Cmedium, eq).
Compound CMeOH, t=0 Measured KMeOH:medium log log KMeOH:medium Calculated
[mg L-1] Cmedium, eq KMeOH:medium (mean ± SD) Cmedium, eq
* The “calculated CMedium, eq” were reported using the average KMeoH:medium and CMeOH, t=0. […]

[2] = Table 1; EPA Comptox where available, otherwise EPISuite MPBPVP v1.43 prediction; cited from earlier work
Daphnia magna = assay: Bioaccumulation test (growth, uptake, depuration; adapted from OECD 305) with passive dosing; format: in vivo; details: for log BAF*L5%: 5-day uptake, steady-state not reached, normalized to 5% lipid assuming 1.5% lipid in daphnids, eq 8; for effects on growth (wet weight) in bioaccumulation test: BCRB 21.6, BNF 4.5, BNT 4.3, DNF 0.1 μg L^–1, vs controls, p < 0.05; for log BCFL5% (BAF*L5%) / log k2 (growth-dilution corrected, k2g): Table S7, this study; for k2g (growth dilution corrected depuration rate constant): eq 4; for t95 (time to reach 95% steady-state): estimated from k2, eq 6; for k2 (depuration rate constant): slope of ln CD vs time
Experimental: (§1) Bioaccumulation tests with D. magna were adapted from OECD guideline 305 (for fish).[27] Each compound was tested using 110 animals: 10 for controls and 100 for chemical exposure. The animals, aged 10 days to limit growth dilution and provide sufficient tissue for analysis, were exposed to a single subtoxic concentration of each chemical. The test included three phases: (i) growth, (ii) uptake, and (iii) depuration. A combined chronic toxicity and bioaccumulation test was also conducted in a minimized version (section 2.6).
(§2) Ten days before exposure, 110 juvenile daphnids (<24 h old) were collected from the stock culture and grown in M4 medium. Due to the large number of animals required for this test, the volume of media and amount of food provided to the Daphnia were reduced for experimental feasibility. This was achieved by maintaining a denser population (20 mL medium/daphnid), as well as less food (D. subspicatus equivalent to 0.1 mg C/daphnid/day) compared to the stock culture yet still within the limits allowed by OECD 211. Other dietary supplements (fish food and spirulina) and physical conditions (temperature, light/dark cycle) were the same as the stock culture.
(§3) Before exposure started, 2 L of M4 medium containing D. subspicatus at a density sufficient for 100 daphnids for 5 days (25 mg C L^–1) was dosed with the test substance by shaking with 24 PDMS disks for 72 h. For controls (10 animals), 200 mL of M4 medium containing D. subspicatus ([…]) was equilibrated with 2 disks loaded with pure methanol. Immediately before the start of exposure phase, 10-day old daphnids were transferred to fresh medium for 1 h to clean their guts. Thereafter, 10 control daphnids were placed in 200 mL of pre-equilibrated clean medium with 2 clean PDMS disks, while 100 animals (treatment group) were divided into two beakers, each with 50 animals, 1 L of predosed exposure medium, and 12 loaded disks to begin the 5-day uptake phase.
(§4) Neonates were discarded daily, and animals were sampled at 24 h intervals over 120 h (5 time points, 2 replicates of 5 animals each). Sampled daphnids were transferred to clean medium for 15 min to remove chemicals present on animal surface, dried with lint-free tissue and weighed to determine wet weight. Finally, 5 animals of known mass were combined in each vial and stored at −20 °C until extraction. As passive dosing maintains constant concentrations,[1] medium samples for analysis (with and without biomass) were only taken at the end of the uptake phase.
(§5) 50 animals were first transferred to fresh medium for 15 min to remove exposure solution from their surface, and then placed in a new clean medium for the depuration phase. Animals were sampled at 4 time points (2 replicates of 5 animals each as in the uptake phase) over 69 to 96 h. After sampling, the remaining animals were transferred to fresh medium, and the old medium was collected for analysis. Control animals and their medium were analyzed at the end of both the uptake and depuration phases (5 animals each).
(§6) For quantification of body burdens, 5 daphnids were thawed, homogenized in 5 mL Milli-Q water (IKA T-25 digital Ultra-TURRAX) and extracted twice with 2 mL of hexane. The extracts were combined, dried with Na2SO4, concentrated under a nitrogen stream, and spiked with internal standard.
(§7) The depuration rate constant (k2) was derived by plotting the natural logarithm of CD against time ([h]), with the slope giving k2 (Figure S3).[27] The growth rate constant (kg) was determined from the slope of the regression line in the plot of ln (D. magna wet weight) versus time, and the growth-corrected depuration rate constant (k2g) was calculated using eq 4. [drawing 4] 4
(§8) From k2, the optimal uptake and depuration durations to reach 50% and 95% steady-state were estimated using eqs 5 and 6. [drawing 5] 5 [drawing 6] 6
(§9) The bioaccumulation factor (BAF*) was calculated, even though steady-state was not reached. […]

[3] = as above; format: in vivo, Daphnia magna; details: whole body (homogenate, wet weight); for concentration at 120 h: Daphnia magna, concentration in animal body at end of uptake phase (t = 120 h), read-out: Body burden
Experimental: as §1, §2, §3, §4, §5, §6, §7, §8, §9

[4] = cited from earlier work; for SW (water solubility): measured in previous work; for log KOW: n-octanol-water partition coefficient; for log KOC: organic carbon-water partition coefficient
D. magna = assay: PNEC and risk quotient estimation; set-up: species or system Daphnia magna; details: environmental concentration of surrogate (CRB, DBF, DBT) / PNEC
From the text: To ensure a precautionary approach, an AF of 100 was applied, which accounts for interspecies variability and uncertainties in extrapolating laboratory findings to real-world conditions.
Environmental concentration (EC) data are obtained from A CRB, B DBF, and C DBT by choosing the highest
concentration that remains below the solubility limit of the respective NSO-PAH, as described in Reference 24.

[5] = Table S7, this study, read-out: half-life (converted)
[6] = t50 (time to reach 50% steady-state / depuration half-life), estimated from k2, eq 5

| SMILES | log KMeOH:medium (mean ± SD) [1] | VP (vapor pressure) [2] | log BAF*L5% (Daphnia magna) | effects on growth (wet weight) in bioaccumulation test (Daphnia magna) | log BCFL5% (BAF*L5%) (Daphnia magna) | log k2 (growth-dilution corrected, k2g) (Daphnia magna) [h-1] | k2g (growth dilution corrected depuration rate constant) (Daphnia magna) [h⁻¹] | t95 (time to reach 95% steady-state) (Daphnia magna) [h] | k2 (depuration rate constant) (Daphnia magna) [h⁻¹] | concentration at 120 h [3] [ng/g] | half-life [3, 5] [h] | half-life [3, 6] [h] | SW (water solubility) [4] [µg/mL] | log KOW [4] | log KOC [4] | RQ (EC/PNEC) (D. magna) |
| --- | --- | --- | --- | --- | --- | --- | --- | --- | --- | --- | --- | --- | --- | --- | --- | --- |
| c1ccc2c(c1)ccc1[nH]c3ccccc3c12 [BCRB, 7H-benzo[c]carbazole] | 4.12±0.06 | 4.43x10^-8 mm Hg | 3.60±0.09 L kg^-1 lipid | statistically significant effects on growth | 3.6 | -0.96 | 0.109 | 27 | 0.111 | 25600 | 6.23 | 6 | 0.80 | 5.22 | 4.84 | 4000 |
| c1ccc2c(c1)ccc1oc3ccccc3c12 [BNF, benzo[b]naphtho[1,2-d]furan] | 5.26±0.06 | 3.36x10^-6 mm Hg | 3.28±0.31 L kg^-1 lipid | statistically significant effects on growth | 3.28 | -1.66 | 0.022 | 120 | 0.025 | 2580 | 27.7 | 28 | 0.25 | 5.6 | 4.98 | 21111 |
| c1ccc2c(c1)ccc1sc3ccccc3c12 [BNT, benzo[b]naphtho[1,2-d]thiophene] | 5.46±0.12 | 8.97x10^-7 mm Hg | 4.36 L kg^-1 lipid and 4.36±0.43 L kg^-1 lipid | No inhibitory growth effects | 4.36 | -1.39 | 0.040 | 71 | 0.042 | 29400 | 16.5 | 17 | 0.026 | 5.75 | 5.50 | 3333 |
| c1ccc2c(c1)ccc1oc3ccc4ccccc4c3c12 [DNF, dinaphtho[2,1-b:1′,2′-d]furan] | 5.98±0.14 | 2.15x10^-8 mm Hg | 3.77 L kg^-1 lipid and 3.77±0.08 L kg^-1 lipid | No inhibitory growth effects | 3.77 | -1.98 | 0.0105 | 232 | 0.0129 | 176 | 53.7 | 54 | 0.0015 | 6.89 | 6.61 |  |
